Results taken from patent publication US10280163B2 (BeiGene, Ltd., priority 2015, dated 2019).
Like-named read-outs stand apart in the source and are kept apart here.

Columns and labels:
[1] = biological target: T1, Recombinant IDO1 (Homo sapiens, UniProt P14902); experiment: IDO1 enzymatic assay; type: biochemical
T1 construct: His tag (N); made in house; host or cells: E. coli
Procedure, shortened: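 N-terminally His-tagged enzyme from E. coli (50 nM) was incubated with compound, 1.3 mM D-tryptophan, 5 mM ascorbate, 6.25 μM methylene blue and 0.4 mg/mL catalase in 50 mM potassium phosphate pH 7.5, 0.1% BSA for 1.5 h at 24° C. N′-formylkynurenine formation was followed at 321 nm for 1 h; IC50 from rate slopes.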

[2] = biological target: T2, Recombinant TDO (Homo sapiens, UniProt P48775); experiment: TDO enzymatic assay; type: biochemical
T2 construct: His tag (C); made in house; host or cells: E. coli
T2 sequence (P48775 whole entry): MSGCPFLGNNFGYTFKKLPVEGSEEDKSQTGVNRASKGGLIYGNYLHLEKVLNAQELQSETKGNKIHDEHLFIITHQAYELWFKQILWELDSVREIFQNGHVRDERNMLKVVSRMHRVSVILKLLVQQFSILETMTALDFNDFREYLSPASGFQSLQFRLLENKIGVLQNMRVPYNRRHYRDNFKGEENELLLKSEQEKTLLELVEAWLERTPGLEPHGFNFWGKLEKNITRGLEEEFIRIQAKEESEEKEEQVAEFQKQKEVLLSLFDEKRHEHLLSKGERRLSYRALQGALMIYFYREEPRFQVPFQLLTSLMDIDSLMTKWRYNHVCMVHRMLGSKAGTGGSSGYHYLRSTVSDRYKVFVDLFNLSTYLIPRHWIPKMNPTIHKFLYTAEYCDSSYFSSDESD
Procedure: Recombinant TDO was overexpressed and purified from E. coli cells with a C-terminal His tag. TDO enzymatic assay was performed using the same methodology as IDO1 enzymatic assay except that 100 nM TDO and 0.5 mM L-tryptophan (Km concentration) were used in the TDO assay.

[3] = biological target: T3, cellular IDO1 in HeLa cells (Homo sapiens, UniProt P14902); experiment: HeLa cell-based IDO1 Kyn (kynurenine) production assay; conditions: Table 1, 5-substituted imidazo[1,5-a]pyridines, IFN-γ 100 ng/mL, 48 hours
T3 construct: endogenous in cells; host or cells: HeLa cells (American Type Tissue Culture Collection), induced with human recombinant IFN-γ
T3 sequence (P14902 whole entry): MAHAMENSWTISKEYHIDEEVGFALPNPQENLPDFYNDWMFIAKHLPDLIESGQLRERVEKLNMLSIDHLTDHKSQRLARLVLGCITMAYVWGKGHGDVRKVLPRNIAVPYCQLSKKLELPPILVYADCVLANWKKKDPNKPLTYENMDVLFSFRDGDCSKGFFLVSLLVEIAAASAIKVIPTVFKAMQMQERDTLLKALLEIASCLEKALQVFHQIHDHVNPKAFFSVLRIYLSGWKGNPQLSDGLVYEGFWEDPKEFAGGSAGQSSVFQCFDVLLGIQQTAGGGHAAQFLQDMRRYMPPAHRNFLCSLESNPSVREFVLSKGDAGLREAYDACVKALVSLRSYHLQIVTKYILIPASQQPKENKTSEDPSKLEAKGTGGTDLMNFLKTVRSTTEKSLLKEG
Procedure, shortened: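 IFN-γ-induced HeLa cells (100 ng/mL) in phenol red-free DMEM with 0.4 mM L-Trp, compounds added together with IFN-γ, 48 h at 37 °C. Supernatant Kyn read at 480 nm after TCA precipitation and 4-(dimethylamino)benzaldehyde reaction. IC50 from four-parameter logistic fit.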

[4] = Table 1, 5-substituted imidazo[1,5-a]pyridines, 50 nM IDO1, 1.3 mM D-tryptophan, read-out: Enzyme IC50 (nM) IDO1
[5] = Table 1, 5-substituted imidazo[1,5-a]pyridines, 100 nM TDO, 0.5 mM L-tryptophan, read-out: Enzyme IC50 (nM) TDO
[6] = selectivity examples, read-out: enzymatic IC50 value to IDO1
[7] = selectivity examples, read-out: enzymatic IC50 value to TDO

T1 sequence (P14902 whole entry): as above

| SMILES | IC50 [1, 4] | IC50 [2, 5] | EC50 [3] | IC50 [1, 6] | IC50 [2, 7] |
| --- | --- | --- | --- | --- | --- |
| OC(c1ccc(F)c2cncn12)C1CCCCC1 (stereo not drawn) [Example A022, cyclohexyl(8-fluoroimidazo[1,5-a]pyridin-5-yl)methanol] | 1200 nM | 570 nM | > 10000 nM |  |  |
| Clc1cc(CC2CCCCC2)n2cncc2c1 [Example A026, 7-chloro-5-(cyclohexylmethyl)imidazo[1,5-a]pyridine] | 107 nM | 73 nM | > 10000 nM |  |  |
| OC(c1cc(Cl)cc2cncn12)C1CCCCC1 (stereo not drawn) [Example A101, (7-chloroimidazo[1,5-a]pyridin-5-yl)(cyclohexyl)methanol] | 29 nM | 68 nM | 1360 nM |  |  |
| OC(CC1CCCCC1)c1cc(Cl)cc2cncn12 (stereo not drawn) [Example A102, 1-(7-chloroimidazo[1,5-a]pyridin-5-yl)-2-cyclohexylethan-1-ol] | 67 nM | 300 nM | 1760 nM |  |  |
| OC(c1cc(Cl)cc2cncn12)C1CCCC1 (stereo not drawn) [Example A103, (7-chloroimidazo[1,5-a]pyridin-5-yl)(cyclopentyl)methanol] | 22 nM | 22 nM | 1510 nM |  |  |
| CC1CCC(C(O)c2cc(Cl)cc3cncn23)CC1 (stereo not drawn) [Example A104, (7-chloroimidazo[1,5-a]pyridin-5-yl)(4-methylcyclohexyl)methanol] | 29 nM | 270 nM | 2180 nM |  |  |
| O=C(NC1CCCC(C(O)c2cc(Cl)cc3cncn23)C1)c1cccc(Cl)c1 (stereo not drawn) [Example A105, 3-chloro-N-(3-((7-chloroimidazo[1,5-a]pyridin-5-yl)(hydroxy)methyl)cyclohexyl)benzamide] | 127 nM | 1600 nM | 1690 nM |  |  |
| OC(c1cc(I)cc2cncn12)C1CCCCC1 (stereo not drawn) [Example A107, cyclohexyl(7-iodoimidazo[1,5-a]pyridin-5-yl)methanol 2,2,2-trifluoroacetate] | 26 nM | 110 nM | 968 nM |  |  |
| OC(c1cc(C2CC2)cc2cncn12)C1CCCCC1 (stereo not drawn) [Example A108, cyclohexyl(7-cyclopropylimidazo[1,5-a]pyridin-5-yl)methanol 2,2,2-trifluoroacetate] | 36 nM | 150 nM | 4440 nM |  |  |
| OC(c1cc(C(F)(F)F)cc2cncn12)C1CCCCC1 (stereo not drawn) [Example A109, cyclohexyl(7-(trifluoromethyl)imidazo[1,5-a]pyridin-5-yl)methanol] | 49 nM | 110 nM | 1540 nM |  |  |
| OC(c1cc(C(F)(F)F)cc2cncn12)C1CCCC1 (stereo not drawn) [Example A110, Cyclopentyl(7-(trifluoromethyl)imidazo[1,5-a]pyridin-5-yl)methanol] | 66 nM | 120 nM | 2090 nM |  |  |
| OC(c1cc(Br)cc2cncn12)C1CCCCC1 (stereo not drawn) [Example A111, (7-bromoimidazo[1,5-a]pyridin-5-yl)(cyclohexyl)methanol] | 25 nM | 63 nM | 962 nM |  |  |
| OC(c1cc(Br)cc2cncn12)C1CCCC1 (stereo not drawn) [Example A112, (7-bromoimidazo[1,5-a]pyridin-5-yl)(cyclopentyl)methanol] | 24 nM | 48 nM | 1040 nM |  |  |
| OC(CCC1CCCCC1)c1cc(Cl)cc2cncn12 (stereo not drawn) [Example A113, 1-(7-chloroimidazo[1,5-a]pyridin-5-yl)-3-cyclohexylpropan-1-ol] | 26 nM | 1100 nM | 3220 nM |  |  |
| OC(c1cc(C(F)(F)F)cc2cncn12)C1CCCCCC1 (stereo not drawn) [Example A115, cycloheptyl(7-(trifluoromethyl)imidazo[1,5-a]pyridin-5-yl)methanol] | 180 nM | 320 nM | 3160 nM |  |  |
| OC(c1c(Br)ccc2cncn12)C1CCCC1 (stereo not drawn) [Example A120, (6-bromoimidazo[1,5-a]pyridin-5-yl)(cyclopentyl)methanol] | 37 nM | 3700 nM | 1410 nM |  |  |
| OC(CCC1CCCCC1)c1c(Cl)ccc2cncn12 (stereo not drawn) [Example A128, 1-(6-chloroimidazo[1,5-a]pyridin-5-yl)-3-cyclohexylpropan-1-ol] | 46 nM | 1100 nM | 2160 nM |  |  |
| OC(c1c(-c2ccccc2)ccc2cncn12)C1CCCCC1 (stereo not drawn) [Example A130, cyclohexyl(6-phenylimidazo[1,5-a]pyridin-5-yl)methanol] | 850 nM | 1700 nM | 9150 nM |  |  |
| COc1ccc2cncn2c1C(O)C1CCCCC1 (stereo not drawn) [Example A131, cyclohexyl(6-methoxyimidazo[1,5-a]pyridin-5-yl)methanol] | 28 nM | 4100 nM | 939 nM |  |  |
| OC(c1c(C(F)(F)F)ccc2cncn12)C1CCCC1 (stereo not drawn) [Example A133, cyclopentyl(6-(trifluoromethyl)imidazo[1,5-a]pyridin-5-yl)methanol] | 58 nM | 36000 nM | 2040 nM |  |  |
| OC(c1c(I)ccc2cncn12)C1CC1 (stereo not drawn) [Example A134, cyclopropyl(6-iodoimidazo[1,5-a]pyridin-5-yl)methanol] | 59 nM | 26000 nM | 8610 nM |  |  |
| C=C(C)c1ccc2cncn2c1C(O)C1CCCCC1 (stereo not drawn) [Example A136, cyclohexyl(6-(prop-1en-2-yl)imidazo[1,5-a]pyridin-5-yl)methanol] | 30 nM | 3300 nM | 1610 nM |  |  |

Compounds with a lower EC50 [3], results first:

| IC50 [1, 4] | IC50 [2, 5] | EC50 [3] | IC50 [1, 6] | IC50 [2, 7] | SMILES |
| --- | --- | --- | --- | --- | --- |
| 19 nM | 7900 nM | 556 nM |  |  | C#Cc1ccc2cncn2c1C(O)C1CCCCC1 (stereo not drawn) [Example A123, cyclohexyl(6-ethynylimidazo[1,5-a]pyridin-5-yl)methanol] |
|  |  | 511 nM | 22 nM | 12000 nM | OC(CC1CCCCC1)c1c(Br)ccc2cncn12 (stereo not drawn) [Example A119, 1-(6-bromoimidazo[1,5-a]pyridin-5-yl)-2-cyclohexylethan-1-ol] |
| 35 nM | 2400 nM | 435 nM |  |  | OC(CC1CCCCC1)c1c(C2CC2)ccc2cncn12 (stereo not drawn) [Example A139] |
| 15 nM | 5700 nM | 420 nM |  |  | OC(c1c(Br)ccc2cncn12)C1CCCCC1 (stereo not drawn) [Example A118, (6-bromoimidazo[1,5-a]pyridin-5-yl)(cyclohexyl)methanol] |
| 25 nM | 6600 nM | 418 nM |  |  | OC(c1c(C2CC2)ccc2cncn12)C1CCCC1 (stereo not drawn) [Example A138, cyclopentyl(6-cyclopropylimidazo[1,5-a]pyridin-5-yl)methanol] |
| 9.6 nM | 29 nM | 326 nM |  |  | O[C@H](c1cc(Cl)cc2cncn12)C1CCCCC1 [Example A101a, (S)-(7-chloroimidazo[1,5-a]pyridin-5-yl)(cyclohexyl)methanol] |
| 65 nM | 3100 nM | 291 nM |  |  | OC(c1c(C(F)(F)F)ccc2cncn12)C1CCCCC1 (stereo not drawn) [Example A126, cyclohexyl(6-(trifluoromethyl)imidazo[1,5-a]pyridine-5-yl)methanol] |
| 19 nM | 8700 nM | 275 nM |  |  | OC(CC1CCCCC1)c1c(I)ccc2cncn12 (stereo not drawn) [Example A124, 2-cyclohexyl-1-(6-iodoimidazo[1,5-a]pyridin-5-yl)ethan-1-ol] |
| 28 nM | 430 nM | 268 nM |  |  | Cc1ccc2cncn2c1C(O)C1CCCCC1 (stereo not drawn) [Example A122, cyclohexyl(6-methylimidazo[1,5-a]pyridin-5-yl)methanol] |
| 7.5 nM | 270 nM | 231 nM |  |  | OC(c1c(Cl)ccc2cncn12)C1CCCCC1 (stereo not drawn) [Example A116, (6-chloroimidazo[1,5-a]pyridin-5-yl)(cyclohexyl)methanol] |
| 31 nM | 5600 nM | 205 nM |  |  | OC(c1c(I)ccc2cncn12)C1CCCCC1 (stereo not drawn) [Example A125, cyclohexyl(6-iodoimidazo[1,5-a]pyridin-5-yl)methanol] |
| 44 nM | 3500 nM | 165 nM |  |  | OC(CC1CCCCC1)c1c(C(F)(F)F)ccc2cncn12 (stereo not drawn) [Example A127, 2-cyclohexyl-1-(6-(trifluoromethyl)imidazo[1,5-a]pyridine-5-yl)ethan-1-ol] |
|  |  | 143 nM | 28 nM | 9700 nM | OC(CC1CCCCC1)c1c(Cl)ccc2cncn12 (stereo not drawn) [Example A117, 1-(6-chloroimidazo[1,5-a]pyridin-5-yl)-2-cyclohexylethan-1-ol] |
| 30 nM | 4700 nM | 69.5 nM |  |  | OC(c1c(C2CC2)ccc2cncn12)C1CCCCC1 (stereo not drawn) [Example A129, cyclohexyl(6-cyclopropylimidazo[1,5-a]pyridin-5-yl)methanol] |
| 39 nM | 2700 nM | 54 nM |  |  | CC(C)c1ccc2cncn2c1C(O)C1CCCCC1 (stereo not drawn) [Example A135, cyclohexyl(6-isopropylimidazo[1,5-a]pyridin-5-yl)methanol] |
